This passage reports IC50 results from patent publication US20100311714A1, “1H-IMIDAZO[4,5-c]QUINOLINONE COMPOUNDS” (priority 2009, published 2010).

In this assay the target is T1, PI3K gamma (Homo sapiens, UniProt P48736).
T1 construct: His tag (C); made in house; host or cells: construct from Roger Williams lab (pVL1393); baculovirus BV950; Tn5 (Trichoplusia ni) or TiniPro insect cells
Kind of assay: PI3K gamma kinase assay (Kinase-Glo luminescence). Format: biochemical. Conditions: read-out: PI3Kgamma/IC50. How it is done: In a more preferred assay, the kinase reaction is performed in a final volume of 10 μL per well of a low volume non binding CORNING, 384 well black plate (Cat. No. #3676). The final concentrations of ATP and phosphatidyl inositol (PI) in the assay are 1 μM and 10 μg/mL respectively. The reaction is started by the addition of ATP.
The components of the assay are added per well as follows:
50 nL test compounds in 90% DMSO per well, in columns 1-20, 8 concentrations (⅓ and 1/3.33 serial dilution step) in single. • Low control: […] of 90% DMSO in half the wells of columns 23-24 (0.45% in final). • High control: 50 nL of reference compound (e.g. compound of Example 7 in WO 2006/122806) in the other half of columns 23-24 (2.5 μM in final). • Standard: 50 nL of reference compound as just mentioned diluted as the test compounds in columns 21-22 • 20 mL ‘buffer’ are prepared per assay: • 200 μL of 1M TRIS HCl pH7.5 (10 mM in final) • 60 μL of 1M MgCl2 (3 mM in final) • 500 μL of 2M NaCl (50 mM in final) • 100 μL of 10% CHAPS (0.05% in final) • 200 μL of 100 mM DTT (1 mM in final) • 18.94 mL of nanopure water • 10 mL ‘PI’ are prepared per assay: • 200 μL of 1 mg/ml L-alpha-Phosphatidylinositol (Liver Bovine, Avanti Polar Lipids Cat. No. 840042C MW=909.12) prepared in 3% OctylGlucoside (10 μg/ml in final) • 9.8 mL of ‘buffer’ • 10 mL ‘ATP’ are prepared per assay: • 6.7 μL of 3 mM stock of ATP giving a final concentration of 1 μM per well • 10 mL of ‘buffer’ • 2.5 mL of each PI3K construct are prepared per assay in ‘PI’ with the following final concentration: • 10 nM PI3K alfa EMV B1075 • 25 nM beta EMV BV949 • 10 nM delta EMV BV1060 • 150 nM gamma EMV BV950 • 5 μL of ‘PI/PI3K’ are added per well. • 5 μl ‘ATP’ are added per well to start the reaction. • The plates are then incubated at room temperature for 60 minutes (alfa, beta, delta) or 120 minutes (gamma). • The reaction is terminated by the addition of 10 μL Kinase-Glo (Promega Cat. No. #6714). • The assay plates are read after 10 minutes in Synergy 2 reader (BioTek, Vermont USA) with an integration time of 100 milliseconds and sensitivity set to 191. • Output: The High control is around 60′000 counts and the Low control is 30′000 or lower • This luminescence assay gives a useful Z′ ratio between 0.4 and 0.7
PI3K gamma is purified in two chromatographic steps: immobilized metal affinity chromatography (IMAC) on a Ni Sepharose resin (GE Healthcare) and gel filtration (GFC) utilizing a Superdex 200 26/60 column (GE Healthcare). All buffers are chilled to 4° C. and lysis is performed chilled on ice. Column fractionation is performed rapidly at room temperature. Typically frozen insect cells are lysed in a hypertonic lysis buffer and applied to a prepared IMAC column. The resin is washed with 3-5 column volumes of lysis buffer, followed by 3-5 column volumes wash buffer containing 45 mM imidazole, and the target protein is then eluted with a buffer containing 250 mM imidazole. Fractions are analyzed by Coomassie stained SDS-PAGE gels, and fractions containing target protein are pooled and applied to a prepared GFC column. Fractions from the GFC column are analyzed by Coomassie stained SDS-PAGE gels, and fractions containing target protein are pooled. The final pool is dialyzed into a storage buffer containing 50% glycerol and stored at −20° C. The final pool is assayed for activity in the phosphoinostitol kinase assay.
IC50 is determined by a four parameter curve fitting routine that comes along with “excel fit”. A 4 Parameter logistic equation is used to calculate IC50 values (IDBS XLfit) of the percentage inhibition of each compound at 8 concentrations (usually 10, 3.0, 1.0, 0.3, 0.1, 0.030, 0.010 and 0.003 μM). Alternatively, IC50 values are calculated using idbsXLfit model 204, which is a 4 parameter logistic model.
A general note: Kinase-Glo measures the ATP left after a reaction by luminescence.

T1 sequence (P48736 144-1102 limits assumed): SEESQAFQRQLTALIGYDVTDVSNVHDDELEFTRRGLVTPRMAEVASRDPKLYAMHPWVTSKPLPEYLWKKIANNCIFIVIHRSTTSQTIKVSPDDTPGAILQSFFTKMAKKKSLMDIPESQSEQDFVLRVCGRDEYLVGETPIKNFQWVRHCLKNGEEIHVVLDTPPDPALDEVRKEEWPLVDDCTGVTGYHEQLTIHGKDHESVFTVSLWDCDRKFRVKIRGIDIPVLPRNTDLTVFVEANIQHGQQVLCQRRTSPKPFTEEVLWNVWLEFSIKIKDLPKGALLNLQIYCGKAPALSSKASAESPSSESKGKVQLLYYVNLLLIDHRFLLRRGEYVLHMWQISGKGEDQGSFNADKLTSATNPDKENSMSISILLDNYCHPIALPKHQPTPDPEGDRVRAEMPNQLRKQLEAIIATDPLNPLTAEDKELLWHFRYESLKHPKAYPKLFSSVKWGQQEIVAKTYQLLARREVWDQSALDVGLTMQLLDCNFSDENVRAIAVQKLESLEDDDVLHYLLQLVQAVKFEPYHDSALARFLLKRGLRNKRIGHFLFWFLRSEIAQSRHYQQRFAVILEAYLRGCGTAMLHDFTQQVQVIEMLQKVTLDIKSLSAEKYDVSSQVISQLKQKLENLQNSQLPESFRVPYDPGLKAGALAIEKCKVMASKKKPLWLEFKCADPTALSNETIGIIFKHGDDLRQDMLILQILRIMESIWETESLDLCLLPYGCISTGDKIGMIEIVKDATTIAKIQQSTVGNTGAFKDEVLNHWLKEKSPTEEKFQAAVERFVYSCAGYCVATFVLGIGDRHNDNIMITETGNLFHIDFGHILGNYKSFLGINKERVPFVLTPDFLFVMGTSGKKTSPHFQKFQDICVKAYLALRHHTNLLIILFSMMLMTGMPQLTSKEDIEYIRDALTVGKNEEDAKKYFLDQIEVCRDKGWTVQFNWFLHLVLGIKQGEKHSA

Turning to `CNC(=O)c1ccc(-c2ccc3ncc4c(c3c2)n(-c2cccnc2C)c(=O)n4C)cc1` [Example 2.4, N-Methyl-4-[3-methyl-1-(2-methyl-pyridin-3-yl)-2-oxo-2,3-dihydro-1H-imidazo[4,5-c]quinolin-8-yl]-benzamide], the IC50 is 455 nM. The figure for `Cc1ncccc1-n1c(=O)n(C)c2cnc3ccc(-c4cnc5[nH]ccc5c4)cc3c21` [Example 2.8, 3-Methyl-1-(2-methyl-pyridin-3-yl)-8-(1H-pyrrolo[2,3-b]pyridin-5-yl)-1,3-dihydro-imidazo[4,5-c]quinolin-2-one] is 361 nM. As for `Cn1c(=O)n(-c2cccnc2F)c2c3cc(-c4cnc5[nH]ccc5c4)ccc3ncc21` [Example 6.3, 1-(2-Fluoro-pyridin-3-yl)-3-methyl-8-(1H-pyrrolo[2,3-b]pyridin-5-yl)-1,3-dihydro-imidazo[4,5-c]quinolin-2-one], the IC50 is 464 nM.
